Assay results published in US20100260680A1, “NOVEL BONE MASS INCREASING AGENT” (ORIENTAL YEAST CO., LTD., priority 2007, published 2010).
Bridges are numbered along the chain shown (N, C = ends). Where no end group is shown, it is not given here.

Columns and labels:
C57BL/6CrjCrlj mice = assay: Bone morphology measurement with calcein labeling after peptide D administration; format: in vivo, mouse; conditions: region 5 mm away from the distal end of the femur
Experimental: In the experiment in Example 11 in which synthetic peptide D had been administered to mice, calcein (Nacalai) mixed with 2% hydrogen carbonate/ethanol aqueous solution was intraperitoneally administered in doses of 0.01 mL/g (weight) to individual mice of each group for calcein labeling on Days 1 and 4 after the initiation of administration of synthetic peptide D. A region located 5 mm away from the ethanol-fixed distal end of the femur collected from each mouse upon dissection was embedded in a methylmethacrylate (MMA) resin so that a non-decalcified specimen was prepared. […] As a result, in the group treated with peptide D, increases in calcification rate and osteogenesis rate were observed (FIGS. 25A and 25B).

RAW264 cells = assay: TRAP activity in RAW264 cells with GST-RANKL; format: cell-based
Experimental: Peptide E (SEQ ID NO: 16) was prepared from peptide D with the substitution of a single amino acid. TRAP activity and ALP activity were determined to compare peptide D and peptide E in terms of effects of causing osteoclast differentiation and osteoblast differentiation. RAW264 cells mixed with 10% FBS+αMEM (SIGMA) were seeded on a 96-well plate (2×10^3 cells/well). After confirmation of cell adhesion, the medium was replaced with 10% FBS+αMEM containing 10 nM GST-RANKL (Oriental Yeast Co., Ltd.). Peptide D and peptide E were separately added thereto at concentrations of 25, 50, 100, and 200 μM, followed by culture for 4 days. After the termination of culture, 100 μL acetone/ethanol was added to each well for cell fixation, followed by drying in a draft for 30 min.
In order to obtain a TRAP solution buffer at a concentration of 1.5 mg/mL, a solution was prepared by adjusting p-nitrophenyl phosphate (Nacalai) with 50 mM citric acid buffer and adding a 0.2 M sodium tartrate solution in a volume 1/10 that of citric acid buffer. The obtained TRAP solution buffer was added to each well in an amount of 100 μL followed by incubation at 37° C. for 45 min. Then, a 1N NaOH solution (50 μL) was added thereto to terminate the reaction. The OD value at 405 nm was determined for each well with a microplate reader (BMG Labtech) in the same manner as in Example 1.
RAW264 cells mixed with 10% FBS+αMEM (SIGMA) were seeded on a 96-well plate (2×10^3 cells/well). After cell adhesion had taken place, the medium was replaced with 10% FBS+αMEM containing 5 nM GST-RANKL (Oriental Yeast Co., Ltd.). Peptide D in the form of TFA, peptide D in the form of acetate, and peptide D in the form of hydrochloride with concentrations of 25 and 100 μM were separately added thereto, followed by culture for 4 days. After the completion of culture, acetone/ethanol (100 μL) was added to each well for cell fixation, followed by drying in a draft for 30 min. TRAP activity determination was carried out by the method described in Example 16. […] Peptide D in the form of hydrochloride was confirmed to have neither osteoblast differentiation activity nor osteoclastgenesis inhibition activity. However, peptide D in the form of acetate was confirmed to have higher osteoblast differentiation activity and lower osteoclastgenesis inhibition activity compared with peptide D in the form of TFA. […] It is also possible to produce modified peptide D having osteoblast differentiation activity alone or modified peptide D having osteoclastgenesis inhibition activity alone.

[1] = system: Human mesenchymal stem cells; assay: ALP staining of human mesenchymal stem cells; format: cell-based; conditions: Day 7 after differentiation; compared with the control group
Experimental: Peptide D was added at a concentration of 300 μM during differentiation. On Day 7, cells were fixed with a 10% neutral buffer formalin solution, followed by re-fixation with an acetone/ethanol solution.
A stain solution (500 μL) prepared with the composition described below was added to the cells, followed by incubation at 37° C. for 10 minutes, washing with water, and drying.
Naphthol AS-MX phosphate (SIGMA): 5 mg
Fast blue hemi-salt (SIGMA): 30 mg

RANKL = target: T1, RANKL (Homo sapiens, UniProt O14788); conditions: Aoki et al., J Clin Invest 116: 1525, 2006; cited from earlier work
T1 sequence (O14788 140-317 limits assumed): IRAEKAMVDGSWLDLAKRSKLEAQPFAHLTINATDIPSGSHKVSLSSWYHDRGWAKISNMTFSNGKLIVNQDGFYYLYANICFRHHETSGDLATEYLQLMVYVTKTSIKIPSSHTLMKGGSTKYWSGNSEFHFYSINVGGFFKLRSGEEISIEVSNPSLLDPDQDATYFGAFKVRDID

MC3T3-E1 cells = assay: RT-PCR verification of gene expression in MC3T3-E1 cells; format: cell-based, mouse
mouse tibia = assay: DNA microarray analysis of tibia of mice given peptide D; format: in vivo; conditions: peptide D acetate 10 mg/kg s.c. three times daily for 5 days; n=2
Experimental: Total RNA (2 μg) extracted from the tibia of each mouse described in Example 24 was used for a DNA microarray (each group: n=2). According to a standard method, DNA microarray analysis (Mouse Genome 430 2.0 Affymetrix) was carried out. In addition, scanning was performed with a GeneChip Scanner 3000 (Affymetrix 690036) and digitalization was performed using the Gene Chip Operating Software ver. 1.4.

## peptide D: cyclic peptide of SEQ ID NO: 7, 9 amino acids, two cysteine residues bound via a disulfide bond; binds to RANKL (YCWSQYLCY; disulfide 2-8 (inferred))
C57BL/6CrjCrlj mice
  calcification rate: increases
  osteogenesis rate (bone formation rate): increases
RAW264 cells; 25, 50, 100 and 200 μM, 10 nM GST-RANKL, 4 days
  TRAP activity: inhibit TRAP activity
RAW264 cells; 100 and 200 μM
  TRAP activity, peptide D compared with peptide E: significant inhibition actions compared with peptide E
[1]
  ALP staining: observed in a concentration-dependent manner
RANKL
  binding to RANKL: binds to RANKL
MC3T3-E1 cells; 200 μM peptide D (acetate)
  gene expression levels of IRS1, PDGFRβ, PDGFc, FGFR2, FGF2, CTGF, BMP-4 and IGF-2 (RT-PCR): significant increases in the gene expression levels
MC3T3-E1 cells; 200 μM peptide D (acetate) or 150 ng/ml BMP-2
  gene expression levels of ALP, Col1 and OC (RT-PCR): significant increases in the gene expression levels
Mouse tibia
  microarray signals of OC, ALP, CoL1 α2, PDGFc, PDGFRβ and IGF-1 in tibia: significantly higher signals
